Source: paper PMC10580383, “Development of Melanocortin 4 Receptor Agonists by Exploiting Animal-Derived Macrocyclic, Disulfide-Rich Peptide Scaffolds” (ACS Pharmacology & Translational Science, 2023)
Where two headings read alike, the source gives them in different places. Blank lines part the entries; values can stand above or below the molecule they belong to. Where a SMILES comes first, the peptide text is derived from it. Bridges are numbered along the chain shown (N, C = ends). Where no end group is shown, it is not given here. [ ]: non-standard residue; d: D form. pGlu = O=C1CC[C@@H](C(=O)O)N1

How the values were obtained:
mouse MC4R-EGFP = experiment: kinetic BRET β-arrestin-2 recruitment assay (MC4R-EGFP / β-arrestin-2-nanoluciferase); format: cell-based; details: ligand 10 μM; HEK293 cells, MC4R-EGFP and β-arrestin-2-NLuc; mean ligand-induced BRET from 312 to 2433 s, NDP-α-MSH set as 100; three independent experiments
Protocol: Considering the physiological relevance of β-arrestins and their critical role in orchestrating MC4R signaling, we measured β-arrestin-2 recruitment in a kinetic bioluminescence resonance energy transfer (BRET) assay. We screened at a ligand concentration of 10 μM in HEK293 cells transiently expressing MC4R coupled to EGFP, and β-arrestin-2 fused to nanoluciferase. […] By contrast, Pr4LP1, Ar3LP1, Ar3LP2, and GoLP1 recruited β-arrestin-2 with greater efficiencies (>130%) than NDP-α-MSH (Figures 4 and S5B,C).
Figure 4 β-Arrestin-2 recruitment of designed MC4R peptide analogues. BRET assay was used to measure the transient interaction of MC4R-EGFP with β-arrestin-2-nanoluciferase (NLuc) in HEK293 cells over time following cell treatment with 10 μM of tachyplesin-1-like peptides (Ta1LPs, green), protegrin-4-like peptides (Pr4LPs, pink), arenicin-3-like peptides (Ar3LPs, orange), and gomesin-like peptides (GoLPs, blue). Relative BRET quantification was determined by calculating the mean value of ligand-induced BRET for each peptide ligand from 312 to 2433 s which was then divided by the mean value of ligand-induced BRET of NDP-α-MSH set as 100. Data are shown as mean ± SEM from three independent experiments.
BRET assay was performed as previously described.[32] Briefly, β-arrestin-2-nano luciferase and mouse MC4R-EGFP were cotransfected in a 1:10 ratio. 16 h post-transfection, 50,000 cells in 100 μL of phenol red-free DMEM with 10% FBS per well were transferred into white clear bottom 96-well plates and incubated overnight. On the day of the assay, cells were incubated for 1 h at 37 °C in phenol red- and serum-free DMEM. Furimazine (diluted 1:50) and peptide ligands (4×) were prepared in Hank’s balanced salt solution (HBSS), respectively. Prior to establishing the baseline and measuring kinetic BRET, furimazine was incubated for 5 min at 37 °C. The ability of peptide ligands to induce β-arrestin-2 recruitment was assessed by measuring light emissions for EGFP (510 nm) and nanoluciferase (460 nm) over 35 min using Flexstation 3 (Molecular Devices, San Jose, USA). The BRET ratio was calculated as emission EGFP (510 nm)/emission nanoluciferase (460 nm). The ligand-induced BRET was calculated by subtracting […].

[1] = target: T1, mouse melanocortin 4 receptor (MC4R) (Mus musculus, UniProt P56450); experiment: cAMP second messenger quantification assay (Cisbio HTRF cAMP Gs kit); format: cell-based
T1 construct: expressed in transfected cells; host or cells: HEK293 / HEK293T, transient transfection
T1 sequence (P56450 whole entry): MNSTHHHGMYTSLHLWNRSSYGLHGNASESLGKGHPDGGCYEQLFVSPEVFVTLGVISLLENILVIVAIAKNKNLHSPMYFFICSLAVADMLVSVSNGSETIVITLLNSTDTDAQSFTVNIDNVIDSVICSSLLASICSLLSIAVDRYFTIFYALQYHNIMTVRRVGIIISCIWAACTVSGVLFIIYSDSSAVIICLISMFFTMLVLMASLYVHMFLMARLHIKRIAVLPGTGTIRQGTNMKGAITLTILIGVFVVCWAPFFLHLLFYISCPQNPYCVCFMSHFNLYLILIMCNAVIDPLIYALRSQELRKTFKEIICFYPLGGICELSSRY
Protocol: Figure 3 Functional cAMP assay of synthesized peptide analogues targeting MC4R. The accumulation of adenylyl cyclase-catalyzed cAMP of (A) tachylplesin-1-like peptides (Ta1LPs, green), (B) protegrin-4-like peptides ([…], pink), (C) arenicin-3-like peptides (Ar3LPs, orange), and (D) gomesin-like peptides (GoLPs, blue) was measured in HEK293 cells transiently expressing mouse melanocortin 4 receptor (MC4R). […] Data are from three independent experiments and are shown as mean ± SEM.
Assays were performed on cells transiently expressing mouse MC4R-EGFP. BamHI and SacI restriction sites were used to clone mouse MC4R N-terminally into a pEGFP-N1 vector. Peptide ligands were assayed for […] in a 384-well format and triplicate according to the Cisbio protocol. Briefly, 5 μL containing 10,000 cells per well was incubated with 5 μL of peptide solutions prepared 2× in 1× stimulation buffer. Following an incubation of peptide ligands at 37 °C for 30 min, d2-labeled cAMP and cryptate-labeled antibody (5 μL of each) were added to the mixture and further incubated for at least 1 h at room temperature. Subsequently, cAMP levels were quantified on a Flexstation 3 (Molecular Devices, San Jose, USA) using homogeneous time-resolved fluorescence resonance energy transfer and the ratio 665/620 nm. Samples were measured in technical triplicates.
Data analysis was performed with GraphPad Prism (GraphPad Software, San Diego). The potency (EC50) and maximum efficacy (Emax) values of peptide ligands were derived from functional data fitted to three- or four-parameter nonlinear regression curves constrained to a bottom of zero.

[2] = target: human melanocortin 4 receptor with LgBit fused at the C-terminus (human) (UniProt P32245)
Sequence of human melanocortin 4 receptor with LgBit fused at the C-terminus (human) (P32245 whole entry, the tested form may be a part): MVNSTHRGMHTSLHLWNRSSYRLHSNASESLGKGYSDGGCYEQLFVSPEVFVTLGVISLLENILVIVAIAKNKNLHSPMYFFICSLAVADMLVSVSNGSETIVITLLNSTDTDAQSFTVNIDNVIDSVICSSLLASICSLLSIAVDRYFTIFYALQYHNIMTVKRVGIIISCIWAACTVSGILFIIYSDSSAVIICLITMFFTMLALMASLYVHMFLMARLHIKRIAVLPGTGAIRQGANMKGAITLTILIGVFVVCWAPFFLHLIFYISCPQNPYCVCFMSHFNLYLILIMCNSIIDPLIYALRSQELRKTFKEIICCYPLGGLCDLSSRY

[3] = target: mouse melanocortin 4 receptor fused to EGFP (mouse) (UniProt P56450)
Sequence of mouse melanocortin 4 receptor fused to EGFP (mouse) (P56450 whole entry, the tested form may be a part): as the sequence (P56450 whole entry) above

[4] = target: mouse melanocortin 4 receptor fused to EGFP (mouse) (UniProt P56450); remark: listed apart in the source
[5] = HEK293, read-out: efficacy cAMP Emax ± SD

Molecule: CC(C)[C@@H]1NC(=O)[C@H](Cc2c[nH]c3ccccc23)NC(=O)[C@H](Cc2c[nH]cn2)NC(=O)[C@@H](Cc2ccccc2)NC(=O)[C@H](Cc2c[nH]cn2)NC(=O)[C@@H]2CCCN2C(=O)[C@H](Cc2ccc(O)cc2)NC(=O)[C@H](C(C)C)NC(=O)[C@@H]2CSSC[C@H](NC1=O)C(=O)N[C@@H](Cc1ccc(O)cc1)C(=O)N[C@@H](CCCNC(=N)N)C(=O)N[C@@H](CCCNC(=N)N)C(=O)N[C@H](C(=O)N[C@@H](CC(N)=O)C(N)=O)CSSC[C@H](NC(=O)[C@H](Cc1ccccc1)NC(=O)CN)C(=O)N[C@@H](Cc1c[nH]c3ccccc13)C(=O)N[C@@H](Cc1ccc(O)cc1)C(=O)N[C@@H](C(C)C)C(=O)N2 [Ar3LP2] (H-GFCWYVCVYPH[dF]HWVCYRRCN-NH2; disulfide 3-20, 7-16)
BRET efficacy of β-arrestin-2 recruitment relative to NDP-α-MSH (mouse MC4R-EGFP): > 130%
EC50 [1]: 20 nM
Emax ([1]; HEK293; read-out: efficacy cAMP Emax ± SD): 95 ± 10%

Molecule: CC(C)[C@@H]1NC(=O)[C@H](CCCNC(=N)N)NC(=O)[C@H](Cc2c[nH]c3ccccc23)NC(=O)[C@H](Cc2c[nH]cn2)NC(=O)[C@@H](Cc2ccccc2)NC(=O)[C@H](Cc2c[nH]cn2)NC(=O)[C@H](Cc2ccc(O)cc2)NC(=O)[C@H](C(C)C)NC(=O)[C@@H]2CSSC[C@H](NC1=O)C(=O)N[C@@H](Cc1ccc(O)cc1)C(=O)N[C@@H](CCCNC(=N)N)C(=O)N[C@@H](CCCNC(=N)N)C(=O)N[C@H](C(=O)N[C@@H](CC(N)=O)C(N)=O)CSSC[C@H](NC(=O)[C@H](Cc1ccccc1)NC(=O)CN)C(=O)N[C@@H](Cc1c[nH]c3ccccc13)C(=O)N[C@@H](Cc1ccc(O)cc1)C(=O)N[C@@H](C(C)C)C(=O)N2 [Ar3LP4] (H-GFCWYVCVYH[dF]HWRVCYRRCN-NH2; disulfide 3-20, 7-16)
BRET efficacy of β-arrestin-2 recruitment relative to NDP-α-MSH (mouse MC4R-EGFP): less than 60%
EC50 [1]: 794 nM
Emax [1, 5]: 106 ± 14%

Molecule: CC(C)[C@@H]1NC(=O)[C@H](CCCNC(=N)N)NC(=O)[C@H](Cc2c[nH]c3ccccc23)NC(=O)[C@H](CCCNC(=N)N)NC(=O)[C@@H](Cc2ccccc2)NC(=O)[C@H](Cc2c[nH]cn2)NC(=O)[C@H](Cc2ccc(O)cc2)NC(=O)[C@H](C(C)C)NC(=O)[C@@H]2CSSC[C@H](NC1=O)C(=O)N[C@@H](Cc1ccc(O)cc1)C(=O)N[C@@H](CCCNC(=N)N)C(=O)N[C@@H](CCCNC(=N)N)C(=O)N[C@H](C(=O)N[C@@H](CC(N)=O)C(N)=O)CSSC[C@H](NC(=O)[C@H](Cc1ccccc1)NC(=O)CN)C(=O)N[C@@H](Cc1c[nH]c3ccccc13)C(=O)N[C@@H](Cc1ccc(O)cc1)C(=O)N[C@@H](C(C)C)C(=O)N2 [Ar3LP5] (H-GFCWYVCVYH[dF]RWRVCYRRCN-NH2; disulfide 3-20, 7-16)
BRET efficacy of β-arrestin-2 recruitment relative to NDP-α-MSH (mouse MC4R-EGFP): less than 60%
EC50 [1]: 251 nM
Emax [1, 5]: 99 ± 8%

Molecule: CC(C)C[C@@H]1NC(=O)[C@H](CCCNC(=N)N)NC(=O)[C@H](CCCNC(=N)N)NC(=O)[C@@H](NC(=O)[C@@H]2CCC(=O)N2)CSSC[C@@H](C(=O)N[C@@H](CCCNC(=N)N)C(=O)NCC(=O)N[C@@H](CCCNC(=N)N)C(N)=O)NC(=O)[C@H](Cc2ccc(O)cc2)NC(=O)[C@H]([C@@H](C)O)NC(=O)[C@H](C(C)C)NC(=O)[C@@H]2CSSC[C@H](NC1=O)C(=O)N1CCC[C@H]1C(=O)N[C@@H](Cc1c[nH]cn1)C(=O)N[C@H](Cc1ccccc1)C(=O)N[C@@H](Cc1c[nH]cn1)C(=O)N[C@@H](Cc1c[nH]c3ccccc13)C(=O)N2 [GoLP1] ([pGlu]CRRLCPH[dF]HWCVTYCRGR-NH2; disulfide 2-16, 6-12)
BRET efficacy of β-arrestin-2 recruitment relative to NDP-α-MSH (mouse MC4R-EGFP): > 130%
EC50 [1]: 26 nM
Emax [1, 5]: 99 ± 3%

Molecule: CC(C)C[C@@H]1NC(=O)[C@H](CCCNC(=N)N)NC(=O)[C@H](CCCNC(=N)N)NC(=O)[C@@H](NC(=O)[C@@H]2CCC(=O)N2)CSSC[C@@H](C(=O)N[C@@H](CCCNC(=N)N)C(=O)NCC(=O)N[C@@H](CCCNC(=N)N)C(N)=O)NC(=O)[C@H](Cc2ccc(O)cc2)NC(=O)[C@H]([C@@H](C)O)NC(=O)[C@H](C(C)C)NC(=O)[C@@H]2CSSC[C@H](NC1=O)C(=O)N[C@@H](Cc1c[nH]cn1)C(=O)N[C@H](Cc1ccccc1)C(=O)N[C@@H](Cc1c[nH]cn1)C(=O)N[C@@H](Cc1c[nH]c3ccccc13)C(=O)N2 [GoLP2] ([pGlu]CRRLCH[dF]HWCVTYCRGR-NH2; disulfide 2-15, 6-11)
BRET efficacy of β-arrestin-2 recruitment relative to NDP-α-MSH (mouse MC4R-EGFP): less than 60%
EC50 [1]: 158 nM
Emax [1, 5]: 116 ± 11%

coupling of Gαs-SmBit to MC4R-LgBit (nanoluciferase complementation, live cells): EC50 [2]: 1 nM
Molecule: α-MSH (peptide)

recruitment of β-arrestin-2-nanoluciferase to MC4R-EGFP (kinetic BRET, HEK293 cells), 10 μM peptide: BRET efficiency relative to NDP-α-MSH (100) [3]: > 130%
cAMP accumulation (Cisbio HTRF) in HEK293 cells transiently expressing mouse MC4R-EGFP: EC50 [4]: 18 nM
cAMP accumulation (Cisbio HTRF) in HEK293 cells transiently expressing mouse MC4R-EGFP: Emax (normalised to NDP-α-MSH) [4]: 95%
B1: arenicin-3-like peptide 2 (peptide)
peptide: GFCWYVCVYPH[dF]HWVCYRRCN-NH2
modifications: disulfide 7-16, 3-20; N-terminus assumed
SMILES: CC(C)[C@@H]1NC(=O)[C@H](Cc2c[nH]c3ccccc23)NC(=O)[C@H](Cc2c[nH]cn2)NC(=O)[C@@H](Cc2ccccc2)NC(=O)[C@H](Cc2c[nH]cn2)NC(=O)[C@@H]2CCCN2C(=O)[C@H](Cc2ccc(O)cc2)NC(=O)[C@H](C(C)C)NC(=O)[C@@H]2CSSC[C@H](NC1=O)C(=O)N[C@@H](Cc1ccc(O)cc1)C(=O)N[C@@H](CCCNC(=N)N)C(=O)N[C@@H](CCCNC(=N)N)C(=O)N[C@H](C(=O)N[C@@H](CC(N)=O)C(N)=O)CSSC[C@H](NC(=O)[C@H](Cc1ccccc1)NC(=O)CN)C(=O)N[C@@H](Cc1c[nH]c3ccccc13)C(=O)N[C@@H](Cc1ccc(O)cc1)C(=O)N[C@@H](C(C)C)C(=O)N2

recruitment of β-arrestin-2-nanoluciferase to MC4R-EGFP (kinetic BRET, HEK293 cells), 10 μM peptide: BRET efficacy relative to NDP-α-MSH (100) [3]: < 60%
cAMP accumulation (Cisbio HTRF) in HEK293 cells transiently expressing mouse MC4R-EGFP: EC50 [4]: 260 nM
cAMP accumulation (Cisbio HTRF) in HEK293 cells transiently expressing mouse MC4R-EGFP: Emax (normalised to NDP-α-MSH) [4]: 99%
B2: arenicin-3-like peptide 5 (peptide)
peptide: GFCWYVCVYH[dF]RWRVCYRRCN-NH2
modifications: disulfide 7-16, 3-20

recruitment of β-arrestin-2-nanoluciferase to MC4R-EGFP (kinetic BRET, HEK293 cells), 10 μM peptide: BRET efficacy relative to NDP-α-MSH (100) [3]: < 60%
cAMP accumulation (Cisbio HTRF) in HEK293 cells transiently expressing mouse MC4R-EGFP: EC50 [4]: 820 nM
cAMP accumulation (Cisbio HTRF) in HEK293 cells transiently expressing mouse MC4R-EGFP: Emax (normalised to NDP-α-MSH) [4]: 106%
B3: arenicin-3-like peptide 4 (peptide)
peptide: GFCWYVCVYH[dF]HWRVCYRRCN-NH2
modifications: disulfide 7-16, 3-20
